Laboratory results: PubChem BioAssay AID1918931 (Molecular Pharmacology Branch, DTP, NCI, 2023)

Tested on: 138582-337-R-J1-PDC complex spheroid viability
Experiment: Anticancer human tumor 138582-337-R-J1-PDC patient-derived Merkel cell tumor cell line growth inhibition
Conditions: for IC50: curve of first compound; for viability, T/C: stronger effect = lower value
In short: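 Multicellular complex spheroids of tumor cells with human endothelial cells (HUVEC) and mesenchymal stem cells; the LSD1 inhibitor iadademstat was combined with standard-of-care or investigational agents. Top concentration at or near clinical Cmax, half-log dilutions; final DMSO ≤0.25%.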

[1] = second compound 0.1 µM, first compound 0.00949 µM
[2] = second compound 0.1 µM, first compound 0.03 µM
[3] = second compound 0.1 µM, first compound 0.0949 µM
[4] = second compound 0.1 µM, first compound 0.3 µM
[5] = second compound 0.1 µM, first compound 0.949 µM
[6] = second compound 0.1 µM, first compound 3 µM
[7] = second compound 0.316 µM, first compound 0.00949 µM
[8] = second compound 0.316 µM, first compound 0.03 µM
[9] = second compound 0.316 µM, first compound 0.0949 µM
[10] = second compound 0.316 µM, first compound 0.3 µM
[11] = second compound 0.316 µM, first compound 0.949 µM
[12] = second compound 0.316 µM, first compound 3 µM
[13] = second compound 1 µM, first compound 0.00949 µM
[14] = second compound 1 µM, first compound 0.03 µM
[15] = second compound 1 µM, first compound 0.0949 µM
[16] = second compound 1 µM, first compound 0.3 µM
[17] = second compound 1 µM, first compound 0.949 µM
[18] = second compound 1 µM, first compound 3 µM
[19] = second compound 3.16 µM, first compound 0.00949 µM
[20] = second compound 3.16 µM, first compound 0.03 µM
[21] = second compound 3.16 µM, first compound 0.0949 µM
[22] = second compound 3.16 µM, first compound 0.3 µM
[23] = second compound 3.16 µM, first compound 0.949 µM
[24] = second compound 3.16 µM, first compound 3 µM
[25] = second compound 10 µM, first compound 0.00949 µM
[26] = second compound 10 µM, first compound 0.03 µM
[27] = second compound 10 µM, first compound 0.0949 µM
[28] = second compound 10 µM, first compound 0.3 µM
[29] = second compound 10 µM, first compound 0.949 µM
[30] = second compound 10 µM, first compound 3 µM
[31] = second compound 0.1 µM, first compound 0.0316 µM
[32] = second compound 0.1 µM, first compound 0.1 µM
[33] = second compound 0.1 µM, first compound 0.316 µM
[34] = second compound 0.1 µM, first compound 1 µM
[35] = second compound 0.316 µM, first compound 0.0316 µM
[36] = second compound 0.316 µM, first compound 0.1 µM
[37] = second compound 0.316 µM, first compound 0.316 µM
[38] = second compound 0.316 µM, first compound 1 µM
[39] = second compound 1 µM, first compound 0.0316 µM
[40] = second compound 1 µM, first compound 0.1 µM
[41] = second compound 1 µM, first compound 0.316 µM
[42] = second compound 1 µM, first compound 1 µM
[43] = second compound 3.16 µM, first compound 0.0316 µM
[44] = second compound 3.16 µM, first compound 0.1 µM
[45] = second compound 3.16 µM, first compound 0.316 µM
[46] = second compound 3.16 µM, first compound 1 µM
[47] = second compound 10 µM, first compound 0.0316 µM
[48] = second compound 10 µM, first compound 0.1 µM
[49] = second compound 10 µM, first compound 0.316 µM
[50] = second compound 10 µM, first compound 1 µM
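Further: spheroids exposed to agents for 7 days.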
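Wherever viability, T/C is given: 100% = DMSO vehicle control viability.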

## O=C(C=Cc1cccc(S(=O)(=O)Nc2ccccc2)c1)NO + NC1CC1c1ccc(-c2cccc(O)c2)cc1
Second compound 0.1 µM
  IC50: 0.0907 µM
Second compound 0.316 µM
  IC50: 0.0749 µM
Second compound 1 µM
  IC50: < 0.00949 µM
Second compound 3.16 µM
  IC50: 0.0648 µM
Second compound 10 µM
  IC50: 0.113 µM
[1]
  viability, T/C: 67.6%
[2]
  viability, T/C: 64.1%
[3]
  viability, T/C: 49.6%
[4]
  viability, T/C: 36.1%
[5]
  viability, T/C: 0.36%
[6]
  viability, T/C: 69.3%
[7]
  viability, T/C: 58%
[8]
  viability, T/C: 53.2%
[9]
  viability, T/C: 48.6%
[10]
  viability, T/C: 21.1%
[11]
  viability, T/C: 0.35%
[12]
  viability, T/C: 59.1%
[13]
  viability, T/C: 44.8%
[14]
  viability, T/C: 51%
[15]
  viability, T/C: 49.6%
[16]
  viability, T/C: 25%
[17]
  viability, T/C: 0.46%
[18]
  viability, T/C: 49.2%
[19]
  viability, T/C: 49.9%
[20]
  viability, T/C: 63.3%
[21]
  viability, T/C: 45.2%
[22]
  viability, T/C: 25.6%
[23]
  viability, T/C: 0.37%
[24]
  viability, T/C: 30.9%
[25]
  viability, T/C: 66.8%
[26]
  viability, T/C: 57.6%
[27]
  viability, T/C: 53.6%
[28]
  viability, T/C: 29.8%
[29]
  viability, T/C: 0.44%
[30]
  viability, T/C: 41.2%

## Nc1ccccc1NC(=O)c1ccc(CNC(=O)OCc2cccnc2)cc1 + NC1CCC(NC2CC2c2ccccc2)CC1
Second compound 0.1 µM
  IC50: 1.1 µM
Second compound 0.316 µM
  IC50: 1.1 µM
Second compound 1 µM
  IC50: 1.02 µM
Second compound 3.16 µM
  IC50: 1.01 µM
Second compound 10 µM
  IC50: 0.138 µM
[1]
  viability, T/C: 103%
[2]
  viability, T/C: 81.7%
[3]
  viability, T/C: 83.9%
[4]
  viability, T/C: 101%
[5]
  viability, T/C: 57.1%
[6]
  viability, T/C: 1.81%
[7]
  viability, T/C: 88.8%
[8]
  viability, T/C: 76.8%
[9]
  viability, T/C: 79.5%
[10]
  viability, T/C: 86.1%
[11]
  viability, T/C: 57%
[12]
  viability, T/C: 1.94%
[13]
  viability, T/C: 96.1%
[14]
  viability, T/C: 80.2%
[15]
  viability, T/C: 77.3%
[16]
  viability, T/C: 92.5%
[17]
  viability, T/C: 53.5%
[18]
  viability, T/C: 0.81%
[19]
  viability, T/C: 90.5%
[20]
  viability, T/C: 82.3%
[21]
  viability, T/C: 74.5%
[22]
  viability, T/C: 76.4%
[23]
  viability, T/C: 53.5%
[24]
  viability, T/C: 0.82%
[25]
  viability, T/C: 74.2%
[26]
  viability, T/C: 57.8%
[27]
  viability, T/C: 62.2%
[28]
  viability, T/C: 35.4%
[29]
  viability, T/C: 17.7%
[30]
  viability, T/C: 0.52%

## Nc1ncn(C2CC(O)C(CO)O2)c(=O)n1 (stereo not given) + NC1CCC(NC2CC2c2ccccc2)CC1
Second compound 0.1 µM
  IC50: > 1 µM
Second compound 0.316 µM
  IC50: > 1 µM
Second compound 1 µM
  IC50: > 1 µM
Second compound 3.16 µM
  IC50: > 1 µM
Second compound 10 µM
  IC50: > 1 µM
Second compound 0.1 µM, first compound 0.00316 µM
  viability, T/C: 98.7%
Second compound 0.1 µM, first compound 0.01 µM
  viability, T/C: 97.8%
[31]
  viability, T/C: 103%
[32]
  viability, T/C: 108%
[33]
  viability, T/C: 95.4%
[34]
  viability, T/C: 102%
Second compound 0.316 µM, first compound 0.00316 µM
  viability, T/C: 82.7%
Second compound 0.316 µM, first compound 0.01 µM
  viability, T/C: 99.4%
[35]
  viability, T/C: 96.6%
[36]
  viability, T/C: 107%
[37]
  viability, T/C: 89.7%
[38]
  viability, T/C: 96.5%
Second compound 1 µM, first compound 0.00316 µM
  viability, T/C: 96.9%
Second compound 1 µM, first compound 0.01 µM
  viability, T/C: 110%
[39]
  viability, T/C: 97.5%
[40]
  viability, T/C: 81.1%
[41]
  viability, T/C: 83.2%
[42]
  viability, T/C: 97.3%
Second compound 3.16 µM, first compound 0.00316 µM
  viability, T/C: 100%
Second compound 3.16 µM, first compound 0.01 µM
  viability, T/C: 97.5%
[43]
  viability, T/C: 93.1%
[44]
  viability, T/C: 91.8%
[45]
  viability, T/C: 103%
[46]
  viability, T/C: 95.3%
Second compound 10 µM, first compound 0.00316 µM
  viability, T/C: 87.2%
Second compound 10 µM, first compound 0.01 µM
  viability, T/C: 86%
[47]
  viability, T/C: 91.8%
[48]
  viability, T/C: 82.4%
[49]
  viability, T/C: 84.7%
[50]
  viability, T/C: 76.1%

## CC1(C)CCC(CN2CCN(c3ccc(C(=O)NS(=O)(=O)c4ccc(NCC5CCOCC5)c([N+](=O)[O-])c4)c(Oc4cnc5[nH]ccc5c4)c3)CC2)=C(c2ccc(Cl)cc2)C1 + NC1CCC(NC2CC2c2ccccc2)CC1
Second compound 0.1 µM
  IC50: > 10 µM
Second compound 0.316 µM
  IC50: > 10 µM
Second compound 1 µM
  IC50: > 10 µM
Second compound 3.16 µM
  IC50: > 10 µM
Second compound 10 µM
  IC50: > 10 µM
[31]
  viability, T/C: 85.4%
[32]
  viability, T/C: 95%
[33]
  viability, T/C: 92.5%
[34]
  viability, T/C: 91.8%
Second compound 0.1 µM, first compound 3.16 µM
  viability, T/C: 90.7%
Second compound 0.1 µM, first compound 10 µM
  viability, T/C: 126%
[35]
  viability, T/C: 95.9%
[36]
  viability, T/C: 104%
[37]
  viability, T/C: 99.1%
[38]
  viability, T/C: 109%
Second compound 0.316 µM, first compound 3.16 µM
  viability, T/C: 96.8%
Second compound 0.316 µM, first compound 10 µM
  viability, T/C: 88.7%
[39]
  viability, T/C: 99.8%
[40]
  viability, T/C: 89.9%
[41]
  viability, T/C: 82.3%
[42]
  viability, T/C: 79.9%
Second compound 1 µM, first compound 3.16 µM
  viability, T/C: 92.1%
Second compound 1 µM, first compound 10 µM
  viability, T/C: 81.3%
[43]
  viability, T/C: 90.7%
[44]
  viability, T/C: 100%
[45]
  viability, T/C: 108%
[46]
  viability, T/C: 106%
Second compound 3.16 µM, first compound 3.16 µM
  viability, T/C: 92.5%
Second compound 3.16 µM, first compound 10 µM
  viability, T/C: 77.3%
[47]
  viability, T/C: 80.2%
[48]
  viability, T/C: 88.1%
[49]
  viability, T/C: 70.8%
[50]
  viability, T/C: 78.7%
Second compound 10 µM, first compound 3.16 µM
  viability, T/C: 78.3%
Second compound 10 µM, first compound 10 µM
  viability, T/C: 63.5%
